Our source for the GI50 and TGI values is PubChem BioAssay (NCI).

Some test systems named below: T-47D breast; LOX IMVI melanoma; HOP-92 NSCLC; SN12C renal; OVCAR-5 ovarian; EKVX NSCLC; SF-295 CNS; MALME-3M melanoma; SK-OV-3 ovarian; BT-549 breast.
Common to all, as to test: NCI anticancer screen, dose series, 48 h

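Briefly, cells in 96-well plates were exposed to five compound concentrations for 48 h, and endpoints were estimated by linear interpolation. GI50 = concentration required for 50% inhibition of growth. TGI: concentration producing complete growth inhibition.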 Where a SMILES comes first, the peptide text is derived from it. The star is where a group is joined. Cbz = O=C(OCc1ccccc1)*; NHNH2 = NN* Where only a bound is given, the exact number is not on record here.

On to `O=C(NCCNc1nccc(-c2c(-c3cccc(O)c3)nc3sccn23)n1)c1ccccc1`, for which the GI50 in the test on T-47D breast was 11 µM; with LOX IMVI melanoma it was 3.22 µM; in the test with HOP-92 NSCLC it was 2.22 µM; with SN12C renal, 9.04 µM; in the test with OVCAR-5 ovarian, 18.3 µM; in the test on EKVX NSCLC, 25 µM. Moreover, the GI50 with SF-295 CNS was 12.9 µM. Further, the TGI in the test with T-47D breast was 49 µM; in the test with LOX IMVI melanoma, 17.8 µM; in the test with HOP-92 NSCLC, 33.2 µM; in the test on SN12C renal, 38.4 µM; in the test on OVCAR-5 ovarian, 61.8 µM; in the test with EKVX NSCLC it was above 100 µM. Besides, the TGI with SF-295 CNS is 38 µM.
For `O=C1CSC2=NC3=C(CSC/C3=C\c3ccccc3)C(c3ccccc3)N12` (stereo unspecified), the TGI in the test on T-47D breast, in the test with MALME-3M melanoma, with LOX IMVI melanoma, in the test on SK-OV-3 ovarian, in the test on HOP-92 NSCLC and with SN12C renal was above 100 µM throughout. Moreover, the TGI with OVCAR-5 ovarian, in the test with EKVX NSCLC and in the test with SF-295 CNS was above 100 µM in each case.
For the molecule `Cc1cccc(C)c1Nc1nc(C)c(C(=O)CC(=O)C(=O)Nc2c(C(C)C)cccc2C(C)C)s1`, the TGI with BT-549 breast, with T-47D breast, in the test on LOX IMVI melanoma, with SK-OV-3 ovarian, with HOP-92 NSCLC and in the test on SN12C renal was above 100 µM throughout. Besides, the TGI in the test with OVCAR-5 ovarian, in the test on EKVX NSCLC and in the test with SF-295 CNS was above 100 µM throughout.
On to `CCOC(=O)c1cc(C2CCN(c3ccccc3)C2=O)c(C(=O)/C=C(/C)N)[nH]1` (stereo unspecified), for which the TGI with BT-549 breast was above 100 µM; in the test with T-47D breast, above 100 µM; in the test with MALME-3M melanoma, 35.6 µM; in the test on LOX IMVI melanoma, above 100 µM; with SK-OV-3 ovarian it was 50.7 µM; with SN12C renal, 63.7 µM. Besides, the TGI is above 100 µM in the test on OVCAR-5 ovarian, above 100 µM in the test with EKVX NSCLC and 46.7 µM with SF-295 CNS.
Consider `S=C(N1CCN(c2cccc(Cl)c2)CC1)N1CCN(c2cccc(Cl)c2)CC1`, for which the TGI in the test on BT-549 breast was above 100 µM; with T-47D breast it was above 100 µM; in the test with MALME-3M melanoma, 71.4 µM; with SK-OV-3 ovarian it was above 100 µM; in the test with OVCAR-5 ovarian it was above 100 µM; in the test on EKVX NSCLC it was above 100 µM. The same molecule displayed a TGI in the test on SF-295 CNS above 100 µM.
On to `Cc1cc(O)c(/C=N/C(=S)Nc2ccccc2)c(=O)o1`, for which the TGI in the test with BT-549 breast, in the test on T-47D breast, in the test on LOX IMVI melanoma, in the test with SK-OV-3 ovarian, in the test with HOP-92 NSCLC and in the test on SN12C renal was above 100 µM each time. Besides, the TGI in the test with OVCAR-5 ovarian, with EKVX NSCLC and with SF-295 CNS was above 100 µM in each case.
Consider `O=C(Nc1cccc2ccccc12)c1ccccc1`, for which the TGI in the test on BT-549 breast is above 100 µM; in the test on T-47D breast, 81.6 µM; with MALME-3M melanoma, above 100 µM; in the test on LOX IMVI melanoma it was above 100 µM; with SK-OV-3 ovarian it was above 100 µM; in the test with SN12C renal it was above 100 µM. Besides, the TGI in the test on OVCAR-5 ovarian, with EKVX NSCLC and in the test on SF-295 CNS was above 100 µM each time.
Regarding `CCOC(=O)c1c(N2CCCC2)ncn(C)c1=S`, the TGI in the test on T-47D breast, in the test with MALME-3M melanoma, with LOX IMVI melanoma, in the test with HOP-92 NSCLC, in the test on SN12C renal and with OVCAR-5 ovarian was above 100 µM each time. The TGI in the test with EKVX NSCLC and in the test on SF-295 CNS was above 100 µM in each case.
For `CC1(C)OC[C@@H](O)[C@H](Br)CO1`, the TGI in the test with BT-549 breast, in the test with T-47D breast, with MALME-3M melanoma, with LOX IMVI melanoma, in the test on SK-OV-3 ovarian and with SN12C renal was above 100 µM each time. The TGI in the test with OVCAR-5 ovarian, in the test on EKVX NSCLC and in the test with SF-295 CNS was above 100 µM throughout.
For `COc1nc2c(c(=O)n1C)N=C(c1ccc(Cl)cc1)CC(c1ccccc1)N2` (stereo unspecified), the TGI in the test with BT-549 breast is 67.5 µM; in the test with LOX IMVI melanoma, 52.2 µM; in the test with SK-OV-3 ovarian, above 100 µM; in the test on HOP-92 NSCLC, above 100 µM; in the test with SN12C renal, 54.4 µM; in the test on OVCAR-5 ovarian, 78.7 µM. Also, the TGI was determined as 69.2 µM in the test on EKVX NSCLC and 57.6 µM in the test on SF-295 CNS.
Consider `CCOC(=O)CCC(NC(=O)OCc1ccccc1)C(=O)NC(CCC(=O)OCC)C(=O)NN` (stereo unspecified) (Cbz-Glu(OEt)-Glu(OEt)-NHNH2; configuration not given here), for which the TGI with BT-549 breast, with MALME-3M melanoma, in the test with HOP-92 NSCLC, with SN12C renal, with OVCAR-5 ovarian and with EKVX NSCLC was above 100 µM in each case.
As for `CCn1c2ccccc2c2ccc(C3C(C(=O)OC)=C(C)NC(C)=C3C(=O)OC)cc21`, the TGI in the test with BT-549 breast is above 100 µM; in the test with T-47D breast, above 100 µM; in the test on MALME-3M melanoma it was 60.1 µM; in the test with LOX IMVI melanoma it was above 100 µM; in the test on SK-OV-3 ovarian, above 100 µM; in the test with SN12C renal it was above 100 µM. Besides, the TGI in the test with OVCAR-5 ovarian, in the test with EKVX NSCLC and in the test on SF-295 CNS was above 100 µM in each case.
On to `C(=Nc1ccc(-c2nc3ccccc3[nH]2)cc1)c1ccco1`, for which the TGI with BT-549 breast, in the test with T-47D breast, in the test on MALME-3M melanoma, with LOX IMVI melanoma, in the test with HOP-92 NSCLC and in the test on SN12C renal was above 100 µM throughout. Besides, the TGI with OVCAR-5 ovarian and in the test on EKVX NSCLC was above 100 µM throughout.
For `CCN(CC)c1ccc2cc(C(=O)Nc3ccc(C)cc3)c(=N)oc2c1`, the TGI in the test with BT-549 breast, in the test on T-47D breast, with MALME-3M melanoma, with LOX IMVI melanoma, in the test on SK-OV-3 ovarian and in the test with HOP-92 NSCLC was above 100 µM throughout. Further, the TGI in the test on SN12C renal, in the test with OVCAR-5 ovarian and with EKVX NSCLC was above 100 µM in each case.
In the case of `NC1Cc2ccccc2OC1=O` (stereo unspecified), the TGI in the test with BT-549 breast, in the test with T-47D breast, in the test with MALME-3M melanoma, in the test with SK-OV-3 ovarian, with SN12C renal and with OVCAR-5 ovarian was above 100 µM each time. The TGI with EKVX NSCLC and in the test on SF-295 CNS was above 100 µM in each case.
